Source: patent US20130245028A1, “TREATMENT OF CANCER WITH TOR KINASE INHIBITORS” (SIGNAL PHARMACEUTICALS, LLC, priority 2012, published 2013)

Experiments:
[1] = test system: PC3 and PC3-ERG prostate cancer cells; assay: Clonogenic growth inhibition assay for ETS positive and ETS negative lines; assay type: cell-based; settings: PC3 vs PC3-ERG (ETS overexpression); FIG. 1A-C
Source text: Clonogenic Assay: Growth Inhibition Assay for ETS Positive and ETS Negative Lines. […] Then, cells were washed three times with PBS, trypsinized, and replated onto 6 well plates at desired cell densities. Every 3 days the media was replaced with fresh media containing compound. After typically 10-18 days, the cells were fixed and surviving colonies were stained with 0.1% crystal violet and counted by Image Quant (BD biosciences).

[2] = test system: ETS-positive (VCaP and LNCaP) and ETS-negative (PC3 and DU145) prostate cancer cell lines; assay: Caspase 3/7-Glo apoptosis assay for ETS positive and ETS negative lines; assay type: cell-based; settings: single treatment, 48 hours; FIG. 2
Procedure: Caspase Analysis: Apoptosis Assay for ETS Positive and ETS Negative Lines. […] Cells were then directly seeded at desired densities to the Compound 1-spotted 384-well plates. Cells were cultured for 48 hours at 37° C./5% CO2 and were assessed via Caspase 3/7-Glo (Promega Corporation, Madison, Wis.) and read for luminescence.

[3] = test system: LNCaP, VCaP, DU145 or PC3 prostate cancer cell lines; assay: Matrigel cell invasion assay for ETS positive and ETS negative lines; assay type: cell-based; settings: 10 μM, 48 hours treatment; FIG. 3
Procedure: Cell Invasion Assay for ETS Positive and ETS Negative Lines. […] Then cells were tripsinized and re-seeded onto BD biocoat matrigel invasion chamber insert with […] of a 24-well culture plate in serum free media. Cells were then attracted to the lower chamber by the addition of complete media as a chemoattractant. After 48 hours incubation at 37° C./5% CO2, the non-invading cells and EC matrix were gently removed with a cotton swab. Invasive cells, which were located on the lower side of the membrane, were stained with crystal violet, air dried and photographed (FIG. 3).

[4] = test system: ETS positive prostate cancer cells (VCAP and LNCAP); assay: COMET DNA damage assay; assay type: cell-based; settings: FIG. 4
Source text: DNA Damage Assays: COMET Assay.

LNCaP-HR tumor = assay: Castration-resistant LNCaP (LNCaP-HR) prostate cancer in vivo xenograft model; settings: castrated male SCID mice, oral QD up to 15 days, 1 to 5 mg/kg; FIG. 5
Procedure: Castration-Resistant LNCaP (LNCaP-HR) Prostate Cancer In Vivo Xenograft Model A xenograft study was conducted with castration resistant LNCaP-HR tumor-bearing mice. Castrated male SCID mice were inoculated subcutaneously with LNCaP-HR cells in the flank region above the right hind leg. Following inoculation of animals, the tumors were allowed to grow to about 325 mm^3 prior to randomization. On Day 26 following tumor cell inoculation, the mice bearing LNCaP-HR tumors ranging between 98 and 530 mm^3 were pooled together and randomized into various treatment groups. […] The positive control MDV-3100 (50 mg/kg, Q4D) was administered via oral route. MDV-3100 was formulated in 1% CMC, 0.1% Tween 80 and 5% dimethyl sulfoxide (DMSO) in water (as a suspension). Tumors were measured twice a week using calipers and tumor volumes were calculated using the formula of W2×L/2 (wherein “W” is tumor width and “L” is tumor length). Statistical analysis was performed using a one-way analysis of variance (ANOVA) followed by Dunnett's post-hoc comparison with the vehicle-treated control group.

In the case of “1-ethyl-7-(2-methyl-6-(1H-1,2,4-triazol-3-yl)pyridin-3-yl)-3,4-dihydropyrazino[2,3-b]pyrazin-2(1H)-one [Compound 1]”, the “clonogenic growth inhibition (surviving colonies)” value [1] is reported as “ETS overexpression sensitizes PC3 cells to inhibition”, the “Caspase activity (apoptosis)” value [2] is reported as “increased apoptosis in ETS positive cell lines” and the cell invasion [3] is reported as “reduced cell invasion”. The “DNA damage (COMET tail moments)” value [4] was “potentiates DNA damage in ETS positive cells” and the “LNCaP-HR prostate cancer tumor growth” value (LNCaP-HR tumor) was “significantly inhibited”.
